From patent US20030180285A1, “Treatment of fungal infections with polyene or beta glucan synthase inhibitor anti-fungals combined with anti hsp90 antibodies” (priority 2000, published 2003)
≈ marks a conversion by molar mass, not a printed value. Where two headings read alike, the source gives them in different places.

Legend:
[1] = test system: Aspergillus fumigatus (NCPF #2109); test: Aspergillus studies, MIC in microtitre plates; assay type: cell-based; conditions: NCPF2109, formulation buffer only, read-out: MIC to Amphotericin B
Description: (§7) Isolates of Aspergillus fumigatus, Aspergillus flavus and Aspergillus niger were prepared in RPMI 1640 medium. The suspensions were prepared to give a final inoculum of 2×10^4 conidia per ml and these were dispensed in 100 μl aliquots into flat-bottomed microtitre plates. A double dilution series of Amphotericin B ranging from 250 μg/nil to 0.75 μg/ml was prepared and dispensed to the appropriate wells. Mycograb was added to each of the wells at a final concentration of 100 μg/ml in formulation buffer. A control series was also prepared for each isolate which contained formulation buffer only.

[2] = test system: C. albicans (Fluconazole resistant); test: Broth microdilution test (MIC, colony counts); assay type: cell-based, Candida albicans
Description: (§1) Non-Aspergillus yeast strains used (Table 1) were plated onto Sabouraud's dextrose agar (Oxoid, Basingstoke, UK) and incubated at 37° C. for 24 hours. The strains were identified with the API 20C system (BioMerieux, Marcy L'Etoile, France). If needed, microscopical examinations of morphology on cornmeal agar (Oxoid) was used to confirm the identity.
(§2) For non-Aspergillus strains, suspensions were prepared from individual colonies (diameter≧1 mm) in 5 ml of sterile 0.85% saline to a density of […] as established by counting on a haemocytometer grid. For Aspergillus strains, see below.
(§3) RPMI broth was prepared from RPMI 1640 broth medium (Sigma R7880) supplemented with 0.3 g of glutamine per litre, buffered with 34.6 g of morpholine propanesulfonic acid (MOPS) per litre and adjusted to ph 7.0.
Twofold dilutions ([…] for amphotericin B and 400 to 0.4 mg/ml for fluconazole) were prepared in RPMI broth starting from the two stock solutions. A 100 μl suspension of the inoculum diluted 1 in 10 (equivalent to 1×10^3 cfu) was added to the microtiter plates. To this was added 50 μl of the antifungal and then 50 μl of the antibody. Antibody was either neat (0.4 mg/mil), or diluted to 1/10or 1/100. When antibody was absent, the 50 μl volume was made up by RPMI. […]
Colony counts were determined for the wells where there was a visual reduction in yeast growth. […]

[3] = test system: C. albicans outbreak strain; test: Animal synergy: yeast counts in tissues of infected mice; assay type: in vivo, CD1 mice; conditions: Group 1: amphotericin B 0.6 mg/kg only, 48 hours
Description: Thirty CD1 mice (each weighing about 25 g) were injected with 100 μl of C. albicans outbreak strain (equivalent to 1.5×10^7 cfu) and after 2 hours the mice were split into three groups and injected with:
(A) Group 1—100 μl solution of 10 mM ammonium acetate (AAT; pH 9), followed by 100 μl amphotericin B equivalent to 0.6 mg/kg in a 5% (w/v) glucose solution;
(B) Group 2—100 μl solution of 10 mM AAT (pH 9) solution containing 500 μg anti-hsp90 antibody, followed by 100 μl amphotericin B equivalent to 0.6 mg/kg in a 5% (w/v) glucose solution; and
(C) Group 3—100 μl solution of 10 mM AAT (pH 9) containing 50 μg anti-hsp90 antibody, followed by 100 μl amphotericin B equivalent to 0.6 mg/kg in a 5% (w/v) glucose solution.
The animals were culled after 48 hours and yeast counts on Sabouraud's plates of liver, spleen and kidney tissue performed.

[4] = test system: Aspergillus niger; test: Aspergillus studies, MIC in microtitre plates; assay type: cell-based; conditions: formulation buffer only, read-out: MIC to Amphotericin B
Description: as §7

[5] = test system: Aspergillus flavus; test: Aspergillus studies, MIC in microtitre plates; assay type: cell-based; conditions: formulation buffer only, read-out: MIC to Amphotericin B
Description: as §7

[6] = test system: C. krusei (FA/157); test: Broth microdilution test (MIC, colony counts); assay type: cell-based; conditions: for MIC: Pichia kudriavzevii; for MIC / Colony counts: no antibody
Description: as §1, §2, §3
(§4) Twofold dilutions ([…] for amphotericin B and 400 to 0.4 mg/ml for fluconazole) were prepared in RPMI broth starting from the two stock solutions. A 100 μl suspension of the inoculum diluted 1 in 10 (equivalent to 1×10^3 cfu) was added to the microtiter plates. To this was added 50 μl of the antifungal and then 50 μl of the antibody. Antibody was either neat (0.4 mg/mil), or diluted to 1/10or 1/100. When antibody was absent, the 50 μl volume was made up by RPMI. The total volume in each well was 200 μl. Final concentrations of antibody in the experiments were: 100 μg/ml (“neat”), 10 μg/ml (“ 1/10antibody”) or 1 μg/ml (“ 1/100antibody”).
(§5) Plates were incubated at 37° C. overnight and the minimum inhibitory concentration (MIC) defined by the lower concentration inhibiting growth.
(§6) Colony counts were determined for the wells where there was a visual reduction in yeast growth. Results were represented as colony forming units per ml of broth (cfu/ml).

[7] = test system: C. parapsilosis (NCPF #3104); test: Broth microdilution test (MIC, colony counts); assay type: cell-based; conditions: for MIC: Lodderomyces parapsilosis, NCPF3104, no antibody; for Colony counts: no antibody
Description: as §1, §2, §3, §4, §5, §6

[8] = test system: Torulopsis glabrata (NCPF #3240); test: Broth microdilution test (MIC, colony counts); assay type: cell-based; conditions: T. glabrata; for MIC: Nakaseomyces glabratus, NCPF3240
Description: as §1, §2, §3, §4, §5, §6

[9] = test system: C. tropicalis (NCPF #3111); test: Broth microdilution test (MIC, colony counts); assay type: cell-based; conditions: for MIC: Candida tropicalis, NCPF3111, no antibody
Description: as §1, §2, §3, §4, §5, §6

[10] = test system: Candida albicans (outbreak); test: Broth microdilution test (MIC, colony counts); assay type: cell-based
Description: as §1, §2, §3, §4, §5, §6

[11] = read-out: MIC to amphotericin B
[12] = antibody 0.313 μg/ml, no antifungal agent

C[C@@H]1[C@H](O)[C@@H](C)/C=C/C=C/C=C/C=C/C=C/C=C/C=C/[C@H](O[C@@H]2O[C@H](C)[C@@H](O)[C@H](N)[C@@H]2O)C[C@@H]2O[C@](O)(C[C@@H](O)C[C@@H](O)[C@H](O)CC[C@@H](O)C[C@@H](O)CC(=O)O[C@H]1C)C[C@H](O)[C@H]2C(=O)O [Amphotericin B, amphotericin B]
MIC [1]: 2.5 µg/mL (≈ 2.71 µM)
MIC ([2]; Candida albicans, C. albicans fluconazole resistant, no antibody, read-out: MIC to amphotericin B): 0.312 µg/mL (≈ 0.338 µM)
Colonies of C. albicans in tissue ([3]; Kidney): 6.80 ± 0.916 cfu/ml, in log10
Colonies of C. albicans in tissue ([3]; Liver): 4.26 ± 1.42 cfu/ml, in log10
Colonies of C. albicans in tissue ([3]; Spleen): 4.18 ± 1.18 cfu/ml, in log10
MIC [4]: 2.5 µg/mL (≈ 2.71 µM)
MIC [5]: 2.5 µg/mL (≈ 2.71 µM)
MIC [6, 11]: 0.625 µg/mL (≈ 0.676 µM)
MIC [7, 11]: 0.625 µg/mL (≈ 0.676 µM)
Colony counts ([7]; amphotericin B 0.313 μg/ml): 3 × 10^6 cfu/ml
Colony counts ([7]; amphotericin B 0.626 μg/ml): 6.3 × 10^3 cfu/ml
MIC ([8]; no antibody, read-out: MIC to amphotericin B): 0.039 µg/mL (≈ 0.0422 µM)
Colony counts ([8]; amphotericin B 0.009 μg/ml, no antibody): 1.1 × 10^7 cfu/ml
MIC [9, 11]: 0.078 µg/mL (≈ 0.0844 µM)
MIC ([10]; Candida albicans, C. albicans (outbreak), no antibody, read-out: MIC to amphotericin B): 0.156 µg/mL (≈ 0.169 µM)

OC(Cn1cncn1)(Cn1cncn1)c1ccc(F)cc1F [Fluconazole, fluconazole]
MIC ([6]; read-out: MIC to fluconazole): 100 µg/mL (≈ 327 µM)
Colony counts ([6]; fluconazole 25 μg/ml): 3.2 × 10^7 cfu/ml
Colony counts ([6]; fluconazole 50 μg/ml): 1.6 × 10^7 cfu/ml
MIC ([7]; read-out: MIC to fluconazole): 6.25 µg/mL (≈ 20.4 µM)
Colony counts ([7]; fluconazole 3.13 μg/ml): 2.6 × 10^6 cfu/ml
MIC ([8]; no antibody, read-out: MIC to fluconazole): 1.56 µg/mL (≈ 5.09 µM)
MIC ([9]; read-out: MIC to fluconazole): 3.12 µg/mL (≈ 10.2 µM)
Colony counts ([9]; fluconazole 0.09 μg/ml, no antibody): 5 × 10^5 cfu/ml
Colony counts ([10]; C. albicans outbreak strain, fluconazole 0.09 μg/ml, no antibody): 3.6 × 10^5 cfu/ml

B1: antibody: antibody of SEQ ID NO: 2 (heavy, light and spacer domains) recognising Candida albicans hsp90 epitope SEQ ID NO: 1, expressed in E. coli (protein)
scFv: HMAEVQLVESGAEVKKPGESLRISCKGSGCIISSYWISWVRQMPGKGLEWMGKIDPGDSYINYSPSFQGHVTISADKSINTAYLQWNSLKASDTAMYYCARGGRDFGDSFDYWGQGTLVTVSSGGGGSGGGGSGGGGSDVVMTQSPSFLSAFVGDRITITCRASSGISRYLAWYQQAPGKAPKLLIYAASTLQTGVPSRFSGSGSGTEFTLTINSLQPEDFATYYCQHLNSYPLTFGGGTKVDIKRAA
Effect of antibody on its own against yeast growth ([2]; C. albicans (fluconazole resistant), antibody 0.313 μg/ml, no antifungal agent): 6 × 10^6 cfu/ml
Effect of antibody on its own against yeast growth [6, 12]: 1.6 × 10^6 cfu/ml
Effect of antibody on its own against yeast growth [7, 12]: 2.6 × 10^4 cfu/ml
Effect of antibody on its own against yeast growth [8, 12]: 1.2 × 10^7 cfu/ml
Effect of antibody on its own against yeast growth [9, 12]: 6.0 × 10^5 cfu/ml
Effect of antibody on its own against yeast growth ([10]; C. albicans (outbreak), antibody 0.313 μg/ml, no antifungal agent): 5.6 × 10^6 cfu/ml
